Laboratory results as given in patent US6538037B2, “Methods for preparation and use of 1α,24(S)-dihydroxyvitamin D2” (Bone Care International, Inc., priority 1991, dated 2003).
“Also recorded” adds a separate entry of the source.

Key:
[1] = test system: HL-60 promyelocytes; assay: HL-60 cell differentiation assay; assay type: cell-based; conditions: dose-response study
Method: A dose-response study is conducted with 1α,24(S)-(OH)2D2 in the HL-60 cell differentiation assay as described by DeLuca and Ostrom (DeLuca, H. F. and Ostrem, V. K., Prog. Clin. Biol. Res., vol. 259, pp. 41-55 (1988)). In this study, 1α,25-(OH)2D3 is used as a positive control and appropriate solvents are used as negative controls. The following variables are evaluated: nonspecific acid esterase activity, nitroblue tetrazolium (NBT) reduction, and thymidine incorporation.

[2] = molecular target: T1, bovine thymus VDR (Bos taurus, UniProt Q28037); assay: Radioreceptor assay, displacement of 3H-1α,25-(OH)2D3 tracer from bovine thymus VDR; assay type: binding
T1 construct: commercially available reagents of bovine thymus VDR; purchased Incstar (Stillwater, Minn.); host or cells: bovine thymus
T1 sequence (Q28037 1-426): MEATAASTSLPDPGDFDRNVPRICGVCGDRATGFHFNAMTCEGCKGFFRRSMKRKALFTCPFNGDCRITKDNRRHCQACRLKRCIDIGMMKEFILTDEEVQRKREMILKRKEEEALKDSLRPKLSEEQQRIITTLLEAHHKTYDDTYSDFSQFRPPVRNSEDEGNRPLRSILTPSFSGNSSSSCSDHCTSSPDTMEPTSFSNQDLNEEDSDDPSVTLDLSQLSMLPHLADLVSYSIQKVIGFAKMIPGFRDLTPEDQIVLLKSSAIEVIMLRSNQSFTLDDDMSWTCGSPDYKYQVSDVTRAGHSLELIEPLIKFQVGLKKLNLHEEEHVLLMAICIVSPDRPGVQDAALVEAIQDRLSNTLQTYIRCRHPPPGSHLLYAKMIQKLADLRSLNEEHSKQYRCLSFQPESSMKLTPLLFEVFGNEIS
Method: Purified 1α,24(S)-(OH)2D2 was quantitated by photodiode array spectrophotometry and assayed in the radioreceptor assay.
The purified 1α,24(R)-(OH)2D2 and 1α,24(S)-(OH)2D2 epimers were quantitated by ultraviolet spectroscopy.
The binding affinities of the environmentally exposed compounds, crystalline 1α,24-dihydroxyvitamin D2 and powdered 1α,24-dihydroxyvitamin D2, to the vitamin D receptor (VDR) were assessed using methods known in the art, as described, e.g., in Example 6. […] The percent bound versus amount of compound in pg/tube are graphed in FIG. 5.

[3] = Dose ranging study in postmenopausal osteoporotic women; assay type: in vivo, human; conditions: oral 0.5 to 8.0 μg/day, five weeks
Method: Twenty postmenopausal osteoporotic women are enrolled in an open label study.
In admission to the study, all patients receive instruction on selecting a daily diet containing 400 to 600 mg of calcium. Compliance to this diet is verified at weekly intervals by 24-hour food records and by interviews with each patient.
All patients complete a one-week baseline period, a five-week treatment period, and a one-week post-treatment observation period. During the treatment period, patients orally self-administer 1α,24(S)-dihydroxyvitamin D2 at an initial dose of 0.5 μg/day for the first week, and at successively higher doses of 1.0, 2.0, 4.0, and 8.0 μg/day in each of the following four weeks. All doses are administered before breakfast.
Blood and urine chemistries are monitored on a weekly basis throughout the study. Key blood chemistries include fasting serum levels of calcium, phosphorus, osteocalcin, creatinine, and blood urea nitrogen. Key urine chemistries include 24-hour excretion of calcium, phosphorus, and creatinine.

[4] = test system: vitamin D receptor positive tumor; assay: General treatment of cancers, open-label study; assay type: in vivo, human; conditions: after 18 months
Text: Patients with a known vitamin D receptor positive tumor (e.g., adenocarcinoma of the prostate, breast, lung, colon or pancreas, or transitional cell carcinoma of the bladder, or melanoma) participate in an open-label study of 1α,24(S)-(OH)2D2. Patients are placed on a reduced calcium diet prior to treatment, to help minimize intestinal absorption and allow ever higher doses of 1α,24(S)-dihydroxyvitamin D2. This reduced calcium diet may be continued for the duration of treatment, and for one week after the last dose of the 1α,24(S)-dihydroxyvitamin D2. The diet ideally restricts daily calcium intake to 400-500 mg. Patients also discontinue use of any vitamin supplements or vitamin D replacement therapies. Each patient is also asked to drink 4-6 cups of fluid more than usual intake to assure adequate oral hydration.
Each subject is monitored at regular intervals for: (1) hypercalcemia, hyperphosphatemia, hypercalciuria, hyperphosphaturia and other toxicity; (2) evidence of changes in the progression of metastatic disease; and (3) compliance with the prescribed test drug dosage.
The dosing regimen is typically on a daily dose basis of 10 μg or 20 μg per day to about 100 μg/day for 24 months. Alternatively, a non-daily dosing regimen can be used, e.g., 40 μg given every other day, 100 μg given once a week. […]

[5] = Blood metabolite levels in osteoporotic women administered 1α-OH-D2; assay type: in vivo, human
Method: An increase in the production of 1α,24(S)-(OH)2D2 relative to 1α,25-(OH)2D2 has also been observed by the present inventors in human females who received 1α-OH-D2 as part of an investigation of that drug for the treatment of osteoporosis. Following either a single dose of 2 μg of 1α-OH-D2 or daily doses of 8 μg/day for one week, blood was collected and analyzed for the metabolites 1α,24(S)-(OH)2D2 and 1α,25-(OH)2D2. Lipid was extracted from the blood, and the metabolites were purified by HPLC using standard methods and quantified with the radioreceptor assay produced by Incstar (Stillwater, Minn.). One day after a single 2 μg dose, the level of 1α,24(S)-(OH)2D2 was undetectable with the 1α,25-(OH)2D2 level being approximately 11 pg/ml. In contrast, one day following the last dose of 8 μg, the level of 1α,24(S)-(OH)2D2 averaged 9 pg/mL with the 1α,25-(OH)2D2 level averaging 30 pg/mL.

[6] = test system: vitamin D receptor (VDR); assay: Vitamin D-inducible growth hormone production in transfected COS-1 cells; assay type: cell-based, Green monkey; conditions: for Total GH Production: averages of duplicate determinations
Method: The biological activity in vitro of chemically synthesized 1α,24(S)-(OH)2D2 and 1α,24(R)-(OH)2D2 was measured using a vitamin D-dependent transcriptional activation model system in which a vitamin D receptor (VDR)-expressing plasmid pSG5-hVDR1/3 and a plasmid p(CT4)^4TKGH containing a Growth Hormone (GH)-gene, under the control of a vitamin D-responsive element (VDRE) were co-transfected into Green monkey kidney, COS-1 cells. DNA's for these two vectors were supplied by Dr. Mark Haussler, Department of Biochemistry, University of Arizona, Tucson, Ariz.
Transfected cells were incubated with vitamin D metabolites and growth hormone production was measured.

- IC50 ([2]; radioreceptor assay, Incstar kit, read-out: half-maximal binding (converted)): ~0.35 nM
- blood level of metabolite ([5]; one day after a single 2 μg dose of 1α-OH-D2): undetectable
- blood level of metabolite (average) ([5]; one day following the last dose of 8 μg/day 1α-OH-D2 for one week): 9 pg/mL
Compound: C=C1/C(=C\C=C2/CCC[C@]3(C)[C@@H]([C@H](C)/C=C/[C@@](C)(O)C(C)C)CC[C@@H]23)C[C@@H](O)C[C@@H]1O [1α,24(S)-(OH)2D2, 1α,24(S)-dihydroxyvitamin D2]
- differentiation of HL-60 promyelocytes to monocytes [1]: potent activity in promoting differentiation
- affinity for VDR relative to 1α,25-(OH)2D3 [2]: two-fold lower affinity; also recorded: two-fold less competitive
- 24-hour urinary calcium levels [3]: modest increases in 24-hour urinary calcium levels
- kidney function (creatinine clearance, blood urea nitrogen) [3]: does not adversely affect kidney function
- routinely monitored serum parameters [3]: no effect on any routinely monitored serum parameters
- serum osteocalcin levels [3]: increases in serum osteocalcin levels
- urinary excretion of hydroxyproline [3]: nor does it increase urinary excretion of hydroxyproline
- progress of metastatic disease (CAT scans, X-rays, bone scans) ([4]; higher dosage): stable disease and partial or complete remission in many patients
- progress of metastatic disease (CAT scans, X-rays, bone scans) ([4]; lower dosage): partial remission in many patients
- Net vitamin D-inducible GH-production ([6]; inducer 5 × 10^−9 M): 1306 ng/mL
- Total GH Production ([6]; inducer 5 × 10^−9 M): 1350 ng/mL
- Net vitamin D-inducible GH-production ([6]; inducer 5 × 10^−10 M): 381 ng/mL
- Total GH Production ([6]; inducer 5 × 10^−10 M): 425 ng/mL
